# Results taken from patent US8859490B2, “Peptide nucleic acid monomers and oligomers” (Nanyang Technological University, priority 2008, dated 2014).
# Entries after “also recorded” stand apart in the source; their conditions may differ.
# Tested on: Hela cells
# Experiment: Cell uptake of FAM-labelled oligomers, fluorescence confocal microscopy
# Assay type: cell-based
# Settings: fluorescein-labelled, 0.5 μM, 24 h, 37° C.
# Procedure: Culture and transfection of Hela cells with fluorescein-labeled aegPNA, AP-PNA, GP-PNA oligomers and Tat peptide were carried out according to previously published protocols (Janowski, B. A., et al., Nature Protocols (2006) 1, 436; Shiraishi, T., &. Nielsen, P. E., Nature Protocols (2006) 1, 633). Hela cells were grown in 75-cm^2 culture flasks at 37° C. in an atmosphere of 5% CO2 in Hyclone DMEM/High Glucose medium without antibiotics and were plated at 100,000 cells per well on 6-well Lab-Tek chambered coverglass slides in DMEM medium and cultured two days before transfection. Oligomer solutions were prepared by diluting a 200 μM stock solution at 1×PBS buffer to 0.5 μM with warmed (37° C.) medium. The cell medium was discarded and cells were washed with 1×PBS buffer followed by incubation with the above prepared oligomers at a concentration of 0.5 μM for 24 h at 37° C. in an atmosphere of 5% CO2. The medium was removed and cells were washed with 1×PBS buffer (2 mL×3) and fixed with […]. The cells were imaged with Olympus IX51 fitted with Cool SNAP^HQ camera and analyzed using Metamorph software (Molecular Devices).
# For the present example the GP-PNA and AP-PNA with the 6-C spacer was chose to examine the cell-uptake activity, since these display the strongest binding affinity when complexed to complementary DNA. Dodecamer aegPNA (Fl-TAGTAGATCACT-Gly-NH2) (SEQ ID NO:1), AP-PNA (Fl-TA^6aGT^6aAG^6aAT^6aCA^6aCT^6a-Gly-NH2) (SEQ ID NO:2), GP-PNA (Fl-TA^6gGT^6gAG^6gAT^6gCA^6gCT^6g-Gly-NH2) (SEQ ID NO:3) oligomers and Tat peptide (Fl-Tyr-Gly-Arg-Lys-Lys-Arg-Arg-Gln-Arg-Arg-Arg-NH2) (SEQ ID NO:4) were synthesized and labeled by fluorescein at the N-terminus. These oligomers were incubated with Hela cells for 24 h at 37° C. and were fixed by paraformaldehyde after PBS (1×) buffer washing. Their uptake properties were determined by fluorescence confocal microscopy. […] To conclude, the guanidino groups pendant from the backbone amide nitrogen confer cell-permeability to the modified PNAs.
row,Substance,cell uptake (fluorescence in cells)
1,"Fl-TAGTAGATCACT-Gly-NH2 [aegPNA, reference compound]",poor cell uptake property
2,Fl-TA^6aGT^6aAG^6aAT^6aCA^6aCT^6a-Gly-NH2 [AP-PNA],better cell uptake property than the aegPNA; also recorded: moderate enhancement in cell uptake activity compared with aegPNA
3,Fl-TA^6gGT^6gAG^6gAT^6gCA^6gCT^6g-Gly-NH2 [GP-PNA],clear and strong fluorescence images were detected in almost all cells; also recorded: readily taken up by Hela cells
